Measurements published in US20080090847A1, “HETEROCYCLIC COMPOUNDS AND USES THEREOF AS D-ALANYL-D-ALANINE LIGASE INHIBITORS” (PLIVA D.D., priority 2001, published 2008).

Target: E. coli ligase (D-Ala-D-Ala ligase) (Escherichia coli, UniProt P07862)
Experiment: D-Ala-D-Ala ligase Ki determination (PK/LDH coupled assay), E. coli ligase
Format: biochemical
Settings: Table 1; read-out: Ki (E. coli ligase)/μM
Text: Inhibition of D-Ala-D-Ala ligase can be assayed for using the pyruvate kinase/lactate dehydrogenase (PK/LDH) assay described in Example 2, and as described in the literature (e.g., in Sarthy et al., Anal. Biochem., 254:288-290, 1997). In the bacterial cell wall synthesis process, the ligase catalyzes the conversion of adenosine triphosphate (ATP) to adenosine diphosphate (ADP) concurrent with the ligation of two D-alanine residues to form D-alanyl-D-alanine. PK then regenerates ATP from the ADP thus created simultaneously with the conversion of phosphopyruvate to pyruvate. LDH catalyzes the reduction of pyruvate to lactate by converting NADH to NAD^+. By monitoring the production rate of NAD^+ (e.g., using UV/Vis spectroscopy), D-Ala-D-Ala ligase activity can be ascertained.
The protein sequence for the enzyme D-ala-D-ala ligase has been determined in a variety of different bacterial species using standard techniques in biochemistry (see Table 5). The protein sequence from any species can be overexpressed in an appropriate host organism such as E. coli using standard molecular biology techniques. The ligase enzyme can be harvested, purified, and used in the above described assay for the determination of inhibitory activity.
The synthetic analogs of Example 1 were dissolved in dimethylsulfoxide (DMSO) at a concentration of 100 mM on the day of screening, using a vortex mixer and sonication if necessary for dissolution. The solutions were kept at room temperature until screening was completed.
A 10 mM NADH (Sigma) stock solution was prepared freshly on the day of screening by dissolving 32 μmol NADH in 3.2 ml double-distilled water. The NADH solution was kept on ice. Stock solutions containing 50 mM phosphoenolpyruvate (PEP; Sigma), 500 μM HERMES, 30 mM adenosine triphosphate (ATP; Sigma), 200 mM D-alanine (Sigma), and 4× core buffer (i.e., 400 mM Hepes, 40 mM magnesium chloride, and 40 mM potassium chloride), were also stored on ice. A stock solution of pyruvate kinase/lactate dehydrogenase (PK/LDH) was also obtained from Sigma.
Table of Final concentrations are dependent on the type of screening:
For each set of test compounds, two 96-well plates were used: an inhibitor plate and an enzyme plate. The test compounds correspond to rows A-G of the plates. Adenosine (Sigma) dissolved in DMSO, used as a control, corresponds to row H of each plate.
The enzyme solution was allowed to equilibrate to 25° C.
Dilutions were prepared in the inhibitor plate as follows: 50 μl DMSO was added to each well of columns 1-11, rows A-G, of the inhibitor plate. 50 μl DMSO were added to each well of columns 1-11, row H. 100 μl of the 100 mM test solutions were added to column 12, rows A-G (i.e., the first compound in row A, the second compound in row B, and so on). 100 μl of a 100 mM Adenosine solution was added to column 12, row H.
50 μl of the test solution was transferred from column 12 in each row to column 11 of the a same row, mixing the solution with the DMSO. 50 μl of solution was then transferred from column 11 in each row to column 10 in the same row, 50 μl from column 10 was transferred to column 9, and so on, down to column 2. No solution was transferred to column 1. Multichannel pipettors were used in making the serial dilution.
120 μl of the enzyme solution was added to each well of the enzyme plate.
The substrate solutions were brought to 25° C.
The analogs and enzymes were then incubated at 25° C. Since the reactions were initiated in columns, the analog addition is also in columns. At t=0 minutes, 5 μl analog was transferred from each well of columns 1-4 of the inhibitor plate to the corresponding well of the enzyme plate. At t=4 minutes, 5 μl analog was transferred from each well of columns 5-8 of the inhibitor plate to the corresponding well of the enzyme plate. At t=8 minutes, 5 μl analog was transferred from each well of columns 9-12 of the inhibitor plate to the corresponding well of the enzyme plate. The inhibitor plate was then frozen. […]

Compound	Ki
Nc1nc(N)c2cc(NCc3ccc(C(=O)NCc4ccccn4)cc3)ccc2n1	73 µM
Nc1nc(N)c2ccc(-c3ccccc3)nc2n1	31 µM
CC(C)c1nc2nc(N)nc(N)c2nc1C(C)C	37 µM
Nc1nc(N)c2nc(CNc3cc(Cl)cc(Cl)c3)cnc2n1	1 µM
Nc1nc(N)c2ncc(CNC(CO)CSCc3ccccc3)nc2n1 (stereo not shown)	55 µM
Cc1ccc(C(C)C)cc1OCc1ncc2c(N)nc(N)nc2n1	20 µM
Nc1nc(N)c2cnc(CSc3ccc(Cl)cc3)nc2n1	12 µM
Nc1nc(N)c2cnc(NCc3ccc(Cl)c(Cl)c3)nc2n1	20 µM
CC(Nc1ncc2c(N)nc(N)nc2n1)C(=O)Nc1ccc2ccccc2c1 (stereo not shown)	29 µM
Nc1nc(N)c2cnc(/C=C/c3ccccc3)nc2n1	14 µM
Nc1nc(N)c2cnc(N[C@H]3CCCc4ccccc43)nc2n1	16 µM
CN(Cc1cccc2ccccc12)c1ncc2c(N)nc(N)nc2n1	3 µM
CN(CCC=C1c2ccccc2CCc2ccccc21)c1ncc2c(N)nc(N)nc2n1	9 µM
Nc1nc(N)c2cnc(N[C@H]3CCN(Cc4ccccc4)C3)nc2n1	13 µM
Nc1nc(N)c2cnc(N3C4CC3N4c3ccc(Cl)cc3)nc2n1	12 µM
CC1C(C)N(c2ncc3c(N)nc(N)nc3n2)C(C)C(C)N1c1ncc2c(N)nc(N)nc2n1 (stereo not shown)	2 µM
Nc1nc(N)c2cnc(NCCNC(=O)c3c(Cl)cccc3Cl)nc2n1	12 µM
Nc1nc(N)c2cnc(CNC(=O)/C=C/c3ccccc3)nc2n1	92 µM
Nc1nc(N)c2cnc(N(CCCO)Cc3ccccc3)nc2n1	14 µM
Nc1nc(N)c2cnc(N3CCC(O)(c4cccc(F)c4)CC3)nc2n1	0.59 µM
Nc1nc(N)c2cnc(Nc3ccc(Cl)c(C(=O)NCc4cccs4)c3)nc2n1	0.5 µM
CN(Cc1cc2ccccc2s1)c1ncc2c(N)nc(N)nc2n1	2.9 µM
